Measurements published in PMC8258866 (Journal of medicinal chemistry, 2020).

Experiments:
MCF7:CFR 3D spheroids = experiment: 3D-spheroid growth assay; format: cell-based; settings: 100 nM; cell viability at day 9
MCF-7:CFR cells [1] = experiment: 3 h treatment and washout study in MCF-7:CFR cells; format: cell-based; settings: media replaced after 3 h, viability after 5 days
MCF-7:Tam1 tumors = experiment: MCF-7:TAM1 xenograft, combination with fulvestrant; format: in vivo, athymic nude mice; settings: 4 weeks
[2] = tested on: tamoxifen-resistant MCF-7:TAM1 cell-derived xenograft; experiment: MCF-7:TAM1 xenograft, monotherapy; format: in vivo
Kinetic solubility = format: physicochemical; settings: 27 tested as HCl salt; for solubility: PBS, pH 7.4, solubility (PBS, pH 7.4)
MCF-7:CFR cells [3] = experiment: Cell growth assay in fulvestrant-resistant MCF-7:CFR 2D cultures; format: cell-based; settings: MCF-7:CFR growth inhibition
BET family proteins = experiment: BROMOscan bromodomain profiling, BET family; format: binding; settings: across BET family proteins
Mouse pharmacokinetics = format: in vivo, CD1 mice; settings: iv 5 mg/kg, mice, HCl salt
[4] = tested on: MCF-7:WS8, MCF-7:5C, MCF-7:TAM1, T47D, T47D/TDG, MCF-7:CPR, MCF-7:CFR cells; experiment: Cell growth assay across ER+ breast cancer cell lines; format: cell-based; settings: read-out: IC50 across all cell lines

In the case of `CC/C(=C(\c1ccc(O)cc1)c1ccc(OCCN(C)C)cc1)c1ccccc1` [4-hydroxytamoxifen], the “effect on MCF-7:CFR 3D spheroid growth/viability” value (MCF7:CFR 3D spheroids) is reported as “Neither 4-hydroxytamoxifen (4OHT) nor fulvestrant inhibited MCF-7:CFR cell growth”.

With `Cc1sc2c(c1C)C(c1ccc(Cl)cc1)=N[C@@H](CC(=O)OC(C)(C)C)c1nnc(C)n1-2` [Compound 1, reference compound] the “efficacy after drug washout” value (MCF-7:CFR cells [1]) was “no significant efficacy at <300 nM” and the “effect on MCF-7:CFR 3D spheroid growth/viability” value (MCF7:CFR 3D spheroids) was “significantly inhibited growth”.

In the case of `CCNC(=O)C[C@@H]1N=C(c2ccc(Cl)cc2)c2cc(OC)ccc2-n2c(C)nnc21` [Compound 2, reference compound], the “tumor growth inhibition versus vehicle control” value (MCF-7:Tam1 tumors; 50 mg/kg po in combination with fulvestrant sc 1 (mg/mouse)/week) is reported as “comparable and significant tumor growth inhibition”.

In the case of `COc1nnc2ccc(N3CCC(c4ccc(OCCN5CCN(C)C(=O)[C@H]5C)cc4)CC3)nn12` [Compound 5, (3R)-4-[2-[4-[1-(3-Methoxy-[1,2,4]-triazolo[4,3-b]pyridazin-6-yl)-4-piperidyl]phenoxy]ethyl]-1,3-dimethyl-piperazin-2-one], the “effect on MCF-7:CFR 3D spheroid growth/viability” value (MCF7:CFR 3D spheroids) is reported as “significantly inhibited growth”.

In the case of `CCS(=O)(=O)Nc1cc(-c2cn(C)c3c(=O)[nH]ccc23)cc2c1ccn2C(C)(c1ccccn1)c1ccccn1` [Compound 27, N-(1-(1,1-Di(pyridin-2-yl)ethyl)-6-(1-methyl-7-oxo-6,7-dihydro-1H-pyrrolo[2,3-c]pyridin-3-yl)-1H-indol-4-yl)-ethanesulfonamide], the “effect on animal body weight” value ([2]; 50 (mg/kg)/day po, 4 weeks) is reported as “without any effect on animal body weight”, the “overt signs of toxicity” value ([2]; once daily administration for 4 weeks) is reported as “no overt signs of toxicity” and the “solubility (PBS, pH 7.4)” value (Kinetic solubility) is reported as 73.43 μM. For the same compound, the solubility (Kinetic solubility) was 73.4 µM, the “efficacy after drug washout” value (MCF-7:CFR cells [1]) was “only slightly diminished” and the “cellular potency over JQ1” value (MCF-7:CFR cells [3]) was over 100 fold. For the same compound, the Kd (BET family proteins) was under 1 nM, the “effect on MCF-7:CFR 3D spheroid growth/viability” value (MCF7:CFR 3D spheroids) was “complete loss of spheroid viability” and the Cl (Mouse pharmacokinetics) was 25.5 (mL/min)/kg. The IC50 [4] was under 10 nM and the “tumor growth inhibition versus vehicle control” value (MCF-7:Tam1 tumors; 30 mg/kg po in combination with fulvestrant sc 1 (mg/mouse)/week) was “comparable and significant tumor growth inhibition”.

For `C[C@]12CC[C@@H]3c4ccc(O)cc4C[C@@H](CCCCCCCCC[S+]([O-])CCCC(F)(F)C(F)(F)F)[C@H]3[C@@H]1CC[C@@H]2O` (stereo partly shown) [fulvestrant], the “effect on MCF-7:CFR 3D spheroid growth/viability” value (MCF7:CFR 3D spheroids) was “Neither 4-hydroxytamoxifen (4OHT) nor fulvestrant inhibited MCF-7:CFR cell growth”.

In the case of `CC(=O)[C@H]1CC[C@H]2[C@@H]3CCC4=CC(=O)CC[C@]4(C)[C@H]3CC[C@]12C` [progesterone, reference compound], the solubility (Kinetic solubility) is reported as 22.4 µM.

For `CC/C(=C(\c1ccccc1)c1ccc(OCCN(C)C)cc1)c1ccccc1` [tamoxifen, reference compound], the “effect on tumor growth relative to vehicle control” value ([2]; 1.5 mg/mouse/day po, day 28) was “no significant effect on tumor growth”.
